Data reported in US20220401391A1, “METHODS AND COMPOSITIONS FOR TREATING PAIN” (Apkarian Technologies LLC, priority 2019, published 2022).
“Also recorded” adds a separate entry of the source.

Columns and labels:
[1] = system: subacute back pain (SBP) participants; assay: Double-blind randomized trial of LDP+NPX vs PLC+NPX in subacute back pain; phone NRS pain ratings; assay type: in vivo, human; details: for One-week average pain ratings, pain intensity (0-10), Mean ± SEM: phone NRS 0-10 scale
Description: The main outcome measure was a Numerical Rating Scale (NRS),^19 where “0” corresponds to no pain and “10” indicates worst possible pain. On this scale, participants provided ratings of their current pain up to three times a day during study participation (6 months), via a smartphone app (phone NRS).
Treatment-related percentage residual pain was computed relative to the average phone-NRS score from the week preceding start of treatment, for every subject and every day, and then averaged across subjects for each treatment type (FIG. 2A). Over the treatment period, a rapid decrease in back pain intensity was observed that, in the NoTx group, stabilizes (with large fluctuations) at around 80% residual pain, while in the LDP+NPX and PLC+NPX groups residual pain continues to decrease for the duration of treatment, reaching a residual pain of about 50%. […] Remarkably in all three groups, the observed pain relief persisted after cessation of treatment, over the next 12 weeks.
This 24-week double-blind parallel randomized controlled trial was conducted at Northwestern University (Chicago, USA). Protocol and informed consent form were approved by Northwestern University IRB as well as NIDCR/NIH. All enrolled participants provided written informed consent. Safety and trial oversight were monitored by an independent data safety monitoring board and a clinical research organization, with NIDCR/NIH oversight. The trial was registered on ClinicalTrials.gov, under registry NCT01951105.
• Eligible subjects first underwent a brain imaging session and, using predefined brain-derived parameters, were stratified into high and low-risk subgroups for transitioning to CBP. Those in the low-risk category, who had 60% or higher probability of recovering naturally, entered the NoTx arm; the rest, who had less than 60% probability of recovering naturally, were randomized between a placebo-control arm, and a pharmacological treatment arm. A flexible dose escalation procedure was used and both researchers and participants were blinded to treatment type. Study medications were tapered off at week 12, and participants continued to be evaluated for another 12 weeks. At final visit, participants underwent a second brain scan.
The design was setup to evaluate safety, efficacy and gender dependence of the combination of carbidopa/levodopa (12.5 mg/50 mg-25 mg/100 mg-50 mg/200 mg, dose escalation based on response) plus naproxen 250 mg (LDP+NPX) administered three times a day, compared to placebo plus naproxen 250 mg (PLC+NPX) administered three times a day.
Treatment with carbidopa/levodopa was titrated up to 12.5 mg/50 mg three times/day over one week and then continued at that level for 4 weeks. If by the end of the initial 4-week period the participant “responded” [had >20% decrease in pain intensity from the average of all phone NRS ratings collected at baseline (between visit 1 and visit 3) to the average of all phone NRS ratings during those 5 weeks], the participant was maintained on that dose for the duration of the treatment period (12 weeks total). If there was no response, the carbidopa/levodopa dose was increased to 25 mg/100 mg three times/day for the following 4 weeks, at which time the pain status was re-evaluated (based on the average of all phone NRS rating during those four weeks, against baseline average). Again, if a response occurred, that dose was maintained in a blinded manner for the following 4 weeks of treatment; if not, further dose-titration carbidopa/levodopa occurred to 50 mg/200 mg three times/day for the final 4 weeks. When a participant experienced an adverse event at higher doses, the participant was given the next lower dose that s/he was able to tolerate and then maintained on that dose for the remainder of the 12-week dosing period. Naproxen dose (250 mg three times/day) remained constant for all participants throughout the study, except it was not given during the tapering down at the end of the study. […]

[2] = human, in vivo
Description: The study consisted of eight visits spread over ˜28 weeks, which included an initial screening/monitoring period (˜2 weeks), followed by a treatment period (12 weeks) and a post-treatment observational period (12 weeks). Safety and adverse events were assessed at each clinical visit, including vital signs. At each visit, researchers reminded participants to take their medication according to instructions. Safety was also assessed through blood screenings at baseline, while blood pressure, pulse and temperature were assessed at all study visits.
Adverse events (AEs) that occurred during treatment and those that occurred after treatment were differentiated. However, to account for potential late onset AEs or those related to withdrawal of medication, AEs occurring during a certain window after treatment were considered to be “during treatment”.
Analyses were done using MATLAB 2016a, JMP Pro version 13.2 (SAS Institute, Cary, N.C.) and SPSS version 25. Safety analyses included all participants who received at least one dose of the study drug.

Row | Substance | Response rates across response criteria (80%-20% residual pain), in words ([1]; 3 and 6 months, by gender) | One-week average pain ratings, pain intensity (0-10), Mean ± SEM ([1]; 3 months (end of treatment)) | One-week average pain ratings, pain intensity (0-10), Mean ± SEM ([1]; 6 months (3 months after end of treatment)) | One-week average pain ratings, pain intensity (0-10), Mean ± SEM ([1]; BL (baseline)) | Efficacy by gender (residual pain, in words) ([1]; females vs males, residual pain at six months) | Males showing at least 80% improvement ([1]; males) | Residual pain reached over duration of treatment ([1]; relative to average phone-NRS of week preceding treatment, 12-week treatment) | Safety / tolerability in words [2]
1 | placebo+naproxen [PLC+NPX] | less effective yielding similar response rates in males and females; also recorded: less effective and similar among males and females | 2.4 ± 0.4 | 2.2 ± 0.4 | 5.1 ± 0.3 | more effective than LDP+NPX in males | 38% | about 50% | 
2 | levodopa/carbidopa [LDP] |  |  |  |  |  |  |  | No adverse effects specifically linked to LDP use were observed
